Literature values in US20140088058A1 (PARTHENOGEN SAGL, priority 2011, published 2014).
Values belong to the molecule of their own block, whether it stands above or below them.

Legend:
[1] = system: infarct formation
[2] = system: gonadotrophin surge, oocytes collected; details: 40 mg oral route since early days of FSH administration
[3] = system: LH surge
[4] = system: FSH and LH plasma concentration

SMILES: NC(=O)c1ccc[n+]([C@@H]2O[C@H](COP(=O)([O-])OP(=O)(O)OC[C@H]3O[C@@H](n4cnc5c(N)ncnc54)[C@H](O)[C@@H]3O)[C@@H](O)[C@H]2O)c1 [NAD+]
effect following rat brain ischemia ([1]; given by injection): ineffective | reduction of infarct formation ([1]; nasal route, rat brain ischemia): 90%

solubility in dimethyl sulfoxide (DMSO) (DMSO): more than 20 mg/ml | solubility in ethanol (ethanol): more than 20 mg/ml
SMILES: CC#C[C@]1(O)CC[C@H]2[C@@H]3CCC4=CC(=O)CCC4=C3[C@@H](c3ccc(N(C)C)cc3)C[C@@]21C [mifepristone, 17β-hydroxyl-11β-(4-dimethyl-aminophenyl-1)-17α-(prop-1-ynyl)-estra-4,9-diene-3-one]
gonadotrophin surge [2]: did not have a gonadotrophin surge | circulating levels of FSH and LH ([3]; 1 mg per os for 5 days, from dominant follicle 14-16 mm): remained flat | LH surge timing versus placebo ([3]; 1 mg per os for 5 days, placebo surge within 1 to 3 days): delayed in all treated women | effect on FSH and LH plasma concentration ([4]; 10 or 100 mg per os): reduction

SMILES: CC(=O)[C@H]1CC[C@H]2[C@@H]3CCC4=CC(=O)CC[C@]4(C)[C@H]3CC[C@]12C [progesterone]
women with gonadotrophin surge within one day from first progesterone injection ([3]; after mifepristone 1 mg per os, progesterone i.m. 2.5 mg bid day 1, 5 mg bid day 2): 5 out of 6 | effect on plasma FSH and LH concentration ([4]; 10 mg i.m. in mid- or late-follicular phase): acute increase
